Where two headings read alike, the source gives them in different places. Marks after values point to notes of the source that are not given here. Bridge positions count the residues as written; N and C are the ends. Square brackets hold non-standard residues; d marks the D form. Peptide text beside a SMILES is read from it. pGlu = O=C1CC[C@@H](C(=O)O)N1
Legend:
[1] = tested on: NFAT-Luciferace reporter (Ca^2+); conditions: Table 4; for NFAT Luciferace units: 24 hours after induction; for Fold Induction NFAT: vs vehicle
Adult neural stem cells [2] = experiment: Flow cytometry for early neuronal marker Doublecortin; conditions: for Fold Induction (Doublecortin-positive cells): vs EGF/FGF
[3] = tested on: cAMP activation in mouse adult neural stem cells; experiment: cAMP detection (HitHunter EFC Cyclic AMP Chemiluminescence Assay); conditions: Table 2; for Fold Induction cAMP: vs vehicle
[4] = tested on: mouse adult neural stem cells; experiment: ATP-assay: proliferation (ATP levels) of neurosphere-derived cells
[5] = tested on: mouse adult neural stem cells; conditions: 0.1 µM
[6] = tested on: cAMP activation in mouse adult neural stem cells
Adult neural stem cells [7] = conditions: 0.1 µM
[8] = Table 2, 10 nM, 4 days, vs vehicle

Compound | % Doublecortin-positive cells (Adult neural stem cells [2]; Table 6, 100 nM, 4 days) [%] | Fold Induction (Doublecortin-positive cells) (Adult neural stem cells [2]; Table 6, 100 nM) [fold] | cAMP (pmol/well) ([3]; 10 nM (cAMP concentration)) | Fold Induction cAMP ([3]; 10 nM) | ATP (nM ATP/well) ([4]; Table 2, 10 nM, 4 days) | Fold Induction ATP [4, 8] | ATP (nM ATP/well) ([4]; Table 4, 10 nM) | Fold Induction ATP ([4]; Table 4, 10 nM, vs vehicle) | NFAT Luciferace units ([1]; 10 nM) [Luciferace units] | Fold Induction NFAT ([1]; 10 nM) | cAMP (pmol/well) ([3]; 100 nM (cAMP concentration)) | ATP (nM ATP/well) ([4]; Table 2, 100 nM, 4 days) | also measured
CC[C@H](C)[C@H](NC(=O)[C@@H](NC(=O)[C@H](CC(=O)O)NC(=O)[C@H](CCC(N)=O)NC(=O)[C@H](Cc1c[nH]cn1)NC(=O)[C@@H]1CSSC[C@H](N)C(=O)N[C@@H](CO)C(=O)N[C@H]2CSSC[C@H](NC(=O)[C@H](CCC(=O)O)NC(=O)[C@H](CCCCN)NC(=O)[C@H](CC(=O)O)NC(=O)[C@H]([C@@H](C)O)NC(=O)[C@H](CCSC)NC(=O)[C@H](CC(=O)O)NC(=O)[C@H](CCCCN)NC2=O)C(=O)N[C@@H](CC(C)C)C(=O)N[C@@H](CC(N)=O)C(=O)N[C@@H](Cc2ccccc2)C(=O)N1)C(C)C)C(=O)N[C@@H](Cc1c[nH]c2ccccc12)C(=O)O [Sarafotoxin S6a] (H-CSCKDMTDKECLNFCHQDVIW-OH; disulfide 1-15, 3-11; N-terminus and C-terminus assumed) | 3.2 | 1.3 | 0.41 ± 0.06 | 1.4* fold | 43.3 ± 4.5 | 3.5*** fold |  |  |  |  |  |  | NFAT Luciferace units ([1]; 1 nM): 6.3 ± 2.4 Luciferace units; Fold Induction NFAT ([1]; 1 nM): 3.4* fold; ATP (nM ATP/well) ([4]; Table 4, 1 nM): 38.9 ± 3.2 nM ATP/well; Fold Induction ATP ([4]; Table 4, 1 nM, vs vehicle): 3.1*** fold
CC1(C)SSC(C)(C)[C@@H](NC(=O)[C@@H](N)Cc2ccc(O)cc2)C(=O)NCC(=O)N[C@@H](Cc2ccccc2)C(=O)N[C@H]1C(=O)O [[D-Pen2-5]-Enkephalin] | 3.3 | 1.3 | 0.06 ± 0.01 | 1.7* fold | 10.7 ± 0.9 | 1.2** fold | 10.7 ± 0.9 | 1.2* fold |  |  |  |  | NFAT Luciferace units ([1]; 100 nM): 10.3 ± 2.1 Luciferace units; Fold Induction NFAT ([1]; 100 nM): 1.8* fold
CC[C@H](C)[C@H](NC(=O)CNC(=O)[C@H](CC(=O)O)NC(=O)[C@H](CO)NC(=O)[C@@H](N)Cc1cnc[nH]1)C(=O)N[C@@H](Cc1ccccc1)C(=O)N[C@H](C(=O)N[C@@H](CC(=O)O)C(=O)N[C@@H](CO)C(=O)N[C@@H](Cc1ccc(O)cc1)C(=O)N[C@@H](CO)C(=O)N[C@@H](CCCNC(=N)N)C(=O)N[C@@H](Cc1ccc(O)cc1)C(=O)N[C@@H](CCCNC(=N)N)C(=O)N[C@@H](CCCCN)C(=O)N[C@@H](CCC(N)=O)C(=O)N[C@@H](CCSC)C(=O)N[C@@H](C)C(=O)N[C@H](C(=O)N[C@@H](CCCCN)C(=O)N[C@@H](CCCCN)C(=O)N[C@@H](Cc1ccc(O)cc1)C(=O)N[C@@H](CC(C)C)C(=O)N[C@@H](C)C(=O)N[C@@H](C)C(=O)N[C@H](C(=O)N[C@@H](CC(C)C)C(=O)NCC(=O)N[C@@H](CCCCN)C(=O)N[C@@H](CCCNC(=N)N)C(=O)N[C@@H](Cc1ccc(O)cc1)C(=O)N[C@@H](CCCCN)C(=O)N[C@@H](CCC(N)=O)C(=O)N[C@@H](CCCNC(=N)N)C(=O)N[C@H](C(=O)N[C@@H](CCCCN)C(=O)N[C@@H](CC(N)=O)C(=O)N[C@@H](CCCCN)C(N)=O)C(C)C)C(C)C)C(C)C)[C@@H](C)O [PACAP-38] | 5.2 | 2.0 |  |  |  |  | 22.0 ± 0.9 | 2.3*** fold | 6.2 ± 1.6 | 1.7* fold | 0.13 ± 0.03 | 26.9 ± 3.7 | Fold Induction cAMP ([3]; 100 nM): 4.2** fold; Fold Induction ATP ([4]; Table 2, 100 nM, 4 days, vs vehicle): 2.9** fold
CC[C@H](C)[C@H](NC(=O)[C@H](Cc1ccccc1)NC(=O)[C@H](C)NC(=O)[C@H](CC(=O)O)NC(=O)[C@H](CCCCN)NC(=O)[C@H](CO)NC(=O)[C@@H]1CCCN1C(=O)[C@@H]1CCC(=O)N1)C(=O)NCC(=O)N[C@@H](CC(C)C)C(=O)N[C@@H](CCSC)C(N)=O [Eledoisin] ([pGlu]PSKDAFIGLM-NH2) | 4.3 |  |  |  |  |  |  |  |  |  |  | 10.4 ± 1.1 | Fold Induction ATP ([5]; mouse): 1.2* fold; Fold Induction cAMP ([6]; mouse, 0.001 µM): 1.2* (1 nM) fold; Fold Induction (Doublecortin-positive cells) (Adult neural stem cells [7]; mouse): 1.7 fold; cAMP (pmol/well) ([3]; 1 nM (cAMP concentration)): 1.0 ± 0.06 pmol/well
CC[C@H](C)[C@H](NC(=O)[C@H](CC(=O)O)NC(=O)[C@H](CC(C)C)NC(=O)[C@H](Cc1cnc[nH]1)NC(=O)[C@@H]1CSSC[C@H](N)C(=O)N[C@@H](CO)C(=O)N[C@H]2CSSC[C@H](NC(=O)[C@H](CCC(=O)O)NC(=O)[C@H](CCCCN)NC(=O)[C@H](CC(=O)O)NC(=O)[C@H](CCSC)NC(=O)[C@H](CC(C)C)NC(=O)[C@H](CO)NC(=O)[C@H](CO)NC2=O)C(=O)N[C@@H](C(C)C)C(=O)N[C@@H](Cc2ccc(O)cc2)C(=O)N[C@@H](Cc2ccccc2)C(=O)N1)C(=O)N[C@H](C(=O)N[C@@H](Cc1c[nH]c2ccccc12)C(=O)O)[C@@H](C)CC [Endothelin-1 (human, porcine)] |  |  | 3.64 ± 1.13 | 2.0* fold | 41.7 ± 7.2 | 2.5* fold |  |  | 13.3 ± 1.3 | 1.6** fold |  |  | % Doublecortin-positive cells (Adult neural stem cells [2]; Table 6, 10 nM, 4 days): 5.0%; Fold Induction (Doublecortin-positive cells) (Adult neural stem cells [2]; Table 6, 10 nM): 2.0 fold; ATP (nM ATP/well) ([4]; Table 4; 10 nM; Porcine,)): 35.3 ± 3.7 nM ATP/well; Fold Induction ATP ([4]; Table 4; 10 nM; vs vehicle; Porcine,), 0.01 µM): 1.3* fold
CC[C@H](C)[C@H](NC(=O)[C@H](CCC(N)=O)NC(=O)[C@H](Cc1c[nH]cn1)NC(=O)[C@H](C)NC(=O)[C@H](CC(C)C)NC(=O)[C@H](CCCCN)NC(=O)[C@H](CCC(N)=O)NC(=O)[C@@H](NC(=O)[C@@H](N)[C@@H](C)O)C(C)C)C(=O)N[C@@H](Cc1ccc(O)cc1)C(=O)N[C@@H](CCC(N)=O)C(=O)N[C@@H](Cc1ccccc1)C(=O)N[C@H](C(=O)N[C@@H](CC(=O)O)C(=O)N[C@@H](CCCCN)C(=O)N[C@@H](CC(=O)O)C(=O)N[C@@H](CCCCN)C(=O)N[C@@H](CC(=O)O)C(=O)N[C@@H](CC(N)=O)C(=O)N[C@H](C(=O)N[C@@H](C)C(=O)N1CCC[C@H]1C(=O)N[C@@H](CCCNC(=N)N)C(=O)N[C@@H](CO)C(=O)N[C@@H](CCCCN)C(=O)N[C@H](C(=O)N[C@@H](CO)C(=O)N1CCC[C@H]1C(=O)N[C@@H](CCC(N)=O)C(=O)NCC(=O)N[C@@H](Cc1ccc(O)cc1)C(N)=O)[C@@H](C)CC)C(C)C)[C@@H](C)O [Adrenomedullin (22-52)] |  |  |  |  |  |  |  |  |  |  | 0.34 ± 0.07 | 12.3 ± 1.1 | Fold Induction ATP [5]: 1.6** fold; Fold Induction cAMP ([6]; 0.1 µM): 1.6* fold; Fold Induction (Doublecortin-positive cells) (Adult neural stem cells [7]): 0.8 fold; % Doublecortin-positive cells (Adult neural stem cells [2]): 2.0%
